Experimental data published in US10106853B2, “CUL4B as predictive biomarker for cancer treatment” (CORNELL UNIVERSITY, priority 2012, dated 2018).

Tests used:
[1] = system: BT474 xenograft tumors; format: in vivo, athymic Nu/J nude mice; details: without topotecan administration; tumor burden and excised tumor weight
Protocol: FIG. 5. CUL4B inactivation sensitized BT474 xenograft tumors to topotecan. Stable TGL-BT474 cells (BT474 cells stably expressing GFP-luciferase reporter) were established by retroviral transduction and FACS sorting. The resulting TGL-BT474 cells were infected with recombinant lentiviruses expressing non-targeting shCtrl, shCUL4A or shCUL4B, followed by selection of infected cells with 4 μg/ml puromycine for one week. A) Knockdown of endogenous CUL4A and 4B were verified by immunoblotting. B, C) 1×10^7 of control, CUL4A^k/d, or CUL4B^k/d TGL-BT474 cells were injected subcutaneously in the right flank of each athymic Nu/J nude mice, treated (i.p.) with toptoecan at a dose of 5 mg/g on every 4th day, and tumor burden was measure by bioluminescent imaging. Statistical significance in tumor burden between control and CUL4A^k/d or CUL4B^k/d xenograph are assessed by a two-tailed unpaired student t-test (***: p<0.001). D) Growth rate of control, CUL4A^k/d and CUL4B^k/d BT474 cells in vitro. The same number of control, CUL4A^k/d and CUL4B^k/d BT474 cells were seeded to 96-well plates and cell proliferation was measured using the XTT Cell Proliferation Assay Kit. The data represent the mean value of fold change of cells. Bars indicate the S.E. of six independent experiments. Statistical significance in cellular rate between control cells and CUL4A^k/d or CUL4B^k/d cells are assessed by student's t-test. E-F) Growth rate of control, CUL4A^k/d and CUL4B^k/d TGL-BT474 xenograft in vivo. 1×10^7 of control, CUL4A^k/d or CUL4B^k/d TGL-BT474 cells were injected subcutaneously in the right flank of each mouse of athymic Nu/J nude mice, and tumor burden was measured by bioluminescent imaging (E). On the 22nd day, tumors were collected, and the weight of exercised tumors was measured after mice were sacrificed (F).
The effect of CUL4B knockdown on an organism's response to CPT treatment was tested in vivo by examining the sensitivity of BT474-CUL4B^k/d, BT474-CUL4A^k/d and control BT474 xenograft tumors to topotecan treatment. Topotecan, (S)-10-[(dimethylamino)methyl]-4-ethyl-4,9-dihydroxy-1H-pyrano[3′,4′:6,7]indolizino[1,2-b]quinoline-3,14(4H,12H)-dione monohydrochloride, is an FDA-approved Top1-directed chemotherapy for the treatment of ovarian, cervical and small cell lung cancer, under the trade name Hycamtin™. Nude mice bearing BT474 xenografts on dorsal skin were treated with topotecan every four (4) days for a period of 44 days. Prior to topotecan administration, the size of the xenograft tumors were identical (FIG. 5). Topotecan was then administered via intraperitoneal injection, and tumor mass was monitors by bioluminescent imaging in four day intervals. […] To rule out the possibility that the growth rate of xenografts were altered during the CUL4B inactivation process (treatment with shRNA) the tumor mass of the three xenograft groups were measured in the absence of topotecan treatment and the weight of the exercised xenograft tumors were analyzed.
Six week old Female athymic Nu/J nude mice were purchased from Jackson Labs. Mice were housed in laminar air-flow cabinets under specific pathogen-free conditions. Nude mice were inoculated with 0.36 mg 60-day-release 17-b-estradiol pellets (Innovative Research) 24 to 48 hours before implantation of BT-474 cells. 1×10^7 BT-474 cells in 50 ul DMEM medium and 300 ul diluted BD Matrigel™ Basement Membrane Matrix (BD Bioscience, Matrix: PBS is 2:1) were injected subcutaneously in the right flank of each mouse. Tumors were detected once every four days by an IVIS Imaging System (Caliper Life Sciences). When tumors were available to be detected, mice were initially treated with topotecan. Topotecan was administered intraperitoneally on every fourth day from the initiation of therapy at doses of 5 mg/g.
The IVIS Imaging System (Caliper life sciences) was used for bioluminescent image acquisition and analysis. […]

[2] = biological target: T1, CUL4B-Top1 interaction (Homo sapiens, UniProt P11387); test: Co-immunoprecipitation of CUL4B and Top1 in BT474 cells; format: cell-based; details: BT474 cells in the presence of CPT, crosslinked
T1 construct: Top1 was co-immunoprecipitated with CUL4B in the presence of CPT; host or cells: BT474 human breast cancer cells
Protocol: BT474 cells were infected with lentiviral shCUL4B, shCUL4A or control non-targeting shRNA, and selected for stable CUL4B^k/d or CUL4A^k/d cells upon treatment with puromycin. Following treatment with CPT (50 μM) for 1 hour, cells were replenished with CPT-free fresh medium and incubated at 37° C. for 30 minutes. Top1 degradation was assessed by immunoblotting with an anti-Top1 antibody. Levels of α-tubulin were measured as a loading control. B) Association of CUL4B with Top1 following CPT treatment. BT474 cells were treated with proteosome inhibitor MG132 (15 μM) for 3 hours, and were subjected to crosslinking with 0.2 mM Dithiobis[succinimidyl propionate](DSP) for the last 30 min at room temperature. Cell lysates were prepared, and immunoprecipitated with the anti-Top1 or anti-CUL4B antibodies, and then immunoblotted using antibodies against CUL4B or Top1, respectively. […] Top1 degradation was assessed by immunoblotting with the anti-Top1 antibody. Levels of α-tubulin were measured as a loading control. […] Statistical significance in cellular response to CPT between control BT474 cells and CUL4A^k/d or CUL4B^k/d cells were assessed by a two-tailed unpaired student t-test (***: p<0.001). […] Statistical significance in cellular response to camptothecin between control cells and CUL4A^k/d or CUL4B^k/d BT474 cells are assessed by student's t-test. […]

[3] = system: γH2AX in BT474 cells; test: Western blot analysis for γH2AX; format: cell-based, Human; details: CPT-treated BT474 cells with CUL4B silencing via shRNA vs control; 2 μM CPT
Protocol: FIG. 3. CUL4B^k/d BT474 cells are susceptible to CPT-induced DNA damage. A) Persistent DNA damage in CPT-treated BT474-CUL4B^k/d cells. Control or CUL4B^k/d BT474 cells were treated with 2 μM of CPT for the indicated time periods, replenished with CPT-free fresh medium, incubated at 37° C. for 1 hour to repair DNA damage, and subjected to immunoblotting with the anti-γH2AX antibody to determine the extent of DNA damage. B) Immunofluorescent detection of γH2AX foci in control or CUL4B^k/d BT474 cells following CPT treatment. BT474 cells were infected with lentiviral control shRNA (shCtrl) or shCUL4B, treated with 2 μM CPT for 2 hours and replenished with CPT-free fresh medium, incubated at 37° C. for 1 hour to repair DNA damage. γH2AX foci were detected by immunofluorescent assay with the rabbit anti-γH2AX antibody and goat anti-rabbit secondary antibody conjugated with cy3 (red). Nuclei were stained with DAPI (blue). C, D) Percentage of γH2AX-positive cells and number of persistent γH2AX foci in a total of 300 γH2AX-positive cells. All values were presented as mean±S.E. Statistical significance was assessed by a two-tailed unpaired Student t-test (***: p<0.001). […]

[4] = system: T47D cells; test: XTT assay for cytotoxic response to camptothecin, T47D; format: cell-based, Human

T1 sequence (P11387 2-765 limits assumed): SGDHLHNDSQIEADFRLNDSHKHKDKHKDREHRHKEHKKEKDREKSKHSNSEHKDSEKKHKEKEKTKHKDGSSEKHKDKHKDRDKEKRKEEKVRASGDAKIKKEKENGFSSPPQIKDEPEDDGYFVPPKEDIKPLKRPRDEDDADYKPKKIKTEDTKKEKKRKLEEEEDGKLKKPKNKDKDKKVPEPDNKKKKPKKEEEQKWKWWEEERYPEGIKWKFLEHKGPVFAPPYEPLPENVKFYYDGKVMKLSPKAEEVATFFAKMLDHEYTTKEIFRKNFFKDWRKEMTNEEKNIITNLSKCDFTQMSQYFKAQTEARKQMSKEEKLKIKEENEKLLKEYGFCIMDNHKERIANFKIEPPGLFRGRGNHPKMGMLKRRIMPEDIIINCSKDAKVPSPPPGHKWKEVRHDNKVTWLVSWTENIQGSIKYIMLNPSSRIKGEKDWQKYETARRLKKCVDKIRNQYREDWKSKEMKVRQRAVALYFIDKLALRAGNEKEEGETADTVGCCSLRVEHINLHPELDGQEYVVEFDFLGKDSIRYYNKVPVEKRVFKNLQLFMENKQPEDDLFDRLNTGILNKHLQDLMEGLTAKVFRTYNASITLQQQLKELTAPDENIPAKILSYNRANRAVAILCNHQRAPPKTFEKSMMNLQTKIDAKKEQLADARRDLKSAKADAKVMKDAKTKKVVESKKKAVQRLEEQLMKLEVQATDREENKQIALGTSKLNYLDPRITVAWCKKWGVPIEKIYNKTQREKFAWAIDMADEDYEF
T1 sequence (Q13620 whole entry partner): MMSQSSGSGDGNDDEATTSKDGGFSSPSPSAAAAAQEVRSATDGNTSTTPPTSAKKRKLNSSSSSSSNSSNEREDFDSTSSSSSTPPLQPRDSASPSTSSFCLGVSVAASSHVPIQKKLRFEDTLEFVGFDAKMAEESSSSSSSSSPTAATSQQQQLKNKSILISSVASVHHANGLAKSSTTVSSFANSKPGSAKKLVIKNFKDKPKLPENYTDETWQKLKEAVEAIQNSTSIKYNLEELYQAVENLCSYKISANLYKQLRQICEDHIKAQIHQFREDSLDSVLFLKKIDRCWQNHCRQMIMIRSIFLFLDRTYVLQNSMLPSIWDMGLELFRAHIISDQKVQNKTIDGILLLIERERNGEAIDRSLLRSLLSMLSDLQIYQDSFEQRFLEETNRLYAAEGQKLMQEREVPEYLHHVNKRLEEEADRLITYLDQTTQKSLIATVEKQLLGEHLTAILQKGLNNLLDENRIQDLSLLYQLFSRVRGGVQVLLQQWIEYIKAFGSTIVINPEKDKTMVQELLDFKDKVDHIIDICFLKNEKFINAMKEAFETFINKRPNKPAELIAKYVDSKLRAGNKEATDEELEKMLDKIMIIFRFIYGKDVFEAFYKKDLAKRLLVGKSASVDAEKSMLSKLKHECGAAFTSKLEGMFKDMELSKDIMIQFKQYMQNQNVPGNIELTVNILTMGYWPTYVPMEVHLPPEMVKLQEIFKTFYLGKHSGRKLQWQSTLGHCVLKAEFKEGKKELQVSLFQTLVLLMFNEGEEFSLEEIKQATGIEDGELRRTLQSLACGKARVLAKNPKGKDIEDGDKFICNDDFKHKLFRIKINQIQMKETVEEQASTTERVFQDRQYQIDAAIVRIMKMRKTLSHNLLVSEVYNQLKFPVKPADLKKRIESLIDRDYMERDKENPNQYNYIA

Row | Compound | Growth rate of xenografts vs control [1] | Association of Top1 with CUL4B [2] | Levels of γH2AX (Western blotting) [3] | Survival rate of CPT-treated cells ([4]; T47D cells with knockdown of CUL4A) | Cytotoxic killing by CPT (cell survival) ([4]; T47D cells with knockdown of CUL4B, CPT three days)
1 | shCUL4B: lentiviral shRNA CUL4B sequence purchased from Sigma Aldrich, reduces CUL4B expression (CCGGGCAGAATTTAAAGAGGGTAAACTCGAGTTTACCCTCTTTAAATTCTGCTTTTT) | no significant difference | – | – | – | –
2 | CC[C@@]1(O)C(=O)OCc2c1cc1n(c2=O)Cc2cc3ccccc3nc2-1 [CPT, (S)-4-ethyl-4-hydroxy-1H-pyrano[3′,4′:6,7]indolizino[1,2-b]quinoline-3,14-(4H, 12H)-dione] | – | co-immunoprecipitated | elevated | no effect | sensitized
